From publication PMC10281575, “PfCRT mutations conferring piperaquine resistance in falciparum malaria shape the kinetics of quinoline drug binding and transport” (PLOS Pathogens, 2023)
Substitutions are numbered along the chain they refer to. Values joined by “and” are separate entries in the source; they are usually repeats but may differ in a detail not shown here. Equal values may be shown once. Read-outs that look alike come from different tables or passages of the source.

How the values were obtained:
PfCRT^Dd2_V141A = molecular target: T1, PfCRT^Dd2_V141A (Plasmodium falciparum, UniProt Q8IBZ9, A220S/I356T/K76T/M74I/N326S/N75E/Q271E/R371I/V141A); experiment: PfCRT-mediated CQ transport in oocytes expressing PfCRT^Dd2_V141A; type: cell-based; conditions: S6 Fig; per biological replicate
T1 construct: expressed in transfected cells; host or cells: Xenopus laevis oocytes
T1 sequence (Q8IBZ9 1-424 M74I/N75E/K76T/V141A/A220S/Q271E/N326S/I356T/R371I): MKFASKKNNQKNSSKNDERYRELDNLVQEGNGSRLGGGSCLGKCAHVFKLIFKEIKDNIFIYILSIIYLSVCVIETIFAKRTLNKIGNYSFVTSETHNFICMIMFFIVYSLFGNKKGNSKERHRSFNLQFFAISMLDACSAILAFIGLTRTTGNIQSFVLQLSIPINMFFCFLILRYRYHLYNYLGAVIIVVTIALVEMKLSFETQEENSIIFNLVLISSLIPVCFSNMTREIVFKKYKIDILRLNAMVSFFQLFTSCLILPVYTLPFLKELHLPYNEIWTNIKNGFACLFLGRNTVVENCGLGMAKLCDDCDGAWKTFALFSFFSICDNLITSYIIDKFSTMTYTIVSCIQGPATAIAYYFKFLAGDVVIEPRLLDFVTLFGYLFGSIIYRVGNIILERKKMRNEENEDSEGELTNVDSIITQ
Excerpt: (§1) The docking results reflect the differences in the experimentally measured affinities of the two compounds for PfCRT^Dd2, with CQ having less favorable docking scores compared to PPQ (S1 Table). […] In this pose, CQ forms polar contacts via the two positively charged nitrogens: the nitrogen of the diethylamino tail makes a salt bridge with E75 on TM1 and the nitrogen of the 4-amminoquinoline ring makes a hydrogen bond with S257 on TM7. Hydrophobic contacts are established by the quinoline ring with I260, V141, and F145.
(§2) Drug transport assays were performed as previously described. Briefly, measurements of radiolabeled drug uptake were made over 1 h, unless otherwise specified. […] Where specified, one or more unlabeled drugs were also present at the indicated concentrations. […] The radioactivity in the sample was measured using a liquid scintillation analyser Tri-Carb 4910 TR (PerkinElmer). Water-injected oocytes were analyzed in parallel as a negative control. The buffer from each condition was measured in duplicate in parallel to each experiment to transform counts per minute into pmol of drug. Drug uptake attributable to PfCRT was determined by subtracting the background uptake from water-injected oocytes from that of PfCRT-expressing oocytes. […]

PfCRT^Dd2_S257A = molecular target: T2, PfCRT^Dd2_S257A (Plasmodium falciparum, UniProt Q8IBZ9, A220S/I356T/K76T/M74I/N326S/N75E/Q271E/R371I/S257A); experiment: PfCRT-mediated CQ transport in oocytes expressing PfCRT^Dd2_S257A; type: cell-based; conditions: S6 Fig; per biological replicate
T2 construct: expressed in transfected cells; host or cells: Xenopus laevis oocytes
T2 sequence (Q8IBZ9 1-424 M74I/N75E/K76T/A220S/S257A/Q271E/N326S/I356T/R371I): T1 sequence (Q8IBZ9 1-424 M74I/N75E/K76T/V141A/A220S/Q271E/N326S/I356T/R371I) with A141V, S257A
Excerpt: as §1, §2

PfCRT^Dd2 = molecular target: T3, PfCRT^Dd2 (Plasmodium falciparum, UniProt Q8IBZ9, A220S/I356T/K76T/M74I/N326S/N75E/Q271E/R371I); conditions: read-out: apparent Km for CQ on PfCRT^Dd2, cited from earlier work
T3 sequence (Q8IBZ9 1-424 M74I/N75E/K76T/A220S/Q271E/N326S/I356T/R371I): T1 sequence (Q8IBZ9 1-424 M74I/N75E/K76T/V141A/A220S/Q271E/N326S/I356T/R371I) with A141V

CCN(CC)CCCC(C)Nc1ccnc2cc(Cl)ccc12 (stereo not shown) [CQ, chloroquine]
PfCRTDd2_V141A-mediated CQ transport (PfCRT^Dd2_V141A): 1.080 pmol oocyte-1 h-1 and 0.460 pmol oocyte-1 h-1 and 1.360 pmol oocyte-1 h-1 | PfCRTDd2_S257A-mediated CQ transport (PfCRT^Dd2_S257A): 1.610 pmol oocyte-1 h-1 and 1.360 pmol oocyte-1 h-1 and 1.980 pmol oocyte-1 h-1 | Km (PfCRT^Dd2; ref Bellanca et al., 2014): 250 ± 30 µM | Km (PfCRT^Dd2; ref Martin et al. 2009): 245 ± 3 µM
